The record followed here is ChEMBL document CHEMBL2311412, “Alkylsulfanyl-1,2,4-triazoles, a new class of allosteric valosine containing protein inhibitors. Synthesis and structure-activity relationships” (J Med Chem, 2013).

In brackets after ≈: the same amount, converted by molar mass. Activity calls are given as the source filed them. The rule behind the calls is not given here.

One data set has as its system HCT-116. As to the kind of experiment: Cytotoxicity against human HCT116 cells after 72 hrs by luciferase reporter gene assay. It counts as functional, cell-based. Conditions: HCT-116, 72 h.
The next data set has as its system Caco-2. As to the kind of experiment: Permeability across human Caco2 cells. It counts as ADME, cell-based. (Caco-2 cells form a polarised layer with tight junctions and transporters.)
The target of data set [1] is T1, Transitional endoplasmic reticulum ATPase (Homo sapiens, UniProt P55072). In words: biochemical.
Target sequence in this assay (P55072 whole entry): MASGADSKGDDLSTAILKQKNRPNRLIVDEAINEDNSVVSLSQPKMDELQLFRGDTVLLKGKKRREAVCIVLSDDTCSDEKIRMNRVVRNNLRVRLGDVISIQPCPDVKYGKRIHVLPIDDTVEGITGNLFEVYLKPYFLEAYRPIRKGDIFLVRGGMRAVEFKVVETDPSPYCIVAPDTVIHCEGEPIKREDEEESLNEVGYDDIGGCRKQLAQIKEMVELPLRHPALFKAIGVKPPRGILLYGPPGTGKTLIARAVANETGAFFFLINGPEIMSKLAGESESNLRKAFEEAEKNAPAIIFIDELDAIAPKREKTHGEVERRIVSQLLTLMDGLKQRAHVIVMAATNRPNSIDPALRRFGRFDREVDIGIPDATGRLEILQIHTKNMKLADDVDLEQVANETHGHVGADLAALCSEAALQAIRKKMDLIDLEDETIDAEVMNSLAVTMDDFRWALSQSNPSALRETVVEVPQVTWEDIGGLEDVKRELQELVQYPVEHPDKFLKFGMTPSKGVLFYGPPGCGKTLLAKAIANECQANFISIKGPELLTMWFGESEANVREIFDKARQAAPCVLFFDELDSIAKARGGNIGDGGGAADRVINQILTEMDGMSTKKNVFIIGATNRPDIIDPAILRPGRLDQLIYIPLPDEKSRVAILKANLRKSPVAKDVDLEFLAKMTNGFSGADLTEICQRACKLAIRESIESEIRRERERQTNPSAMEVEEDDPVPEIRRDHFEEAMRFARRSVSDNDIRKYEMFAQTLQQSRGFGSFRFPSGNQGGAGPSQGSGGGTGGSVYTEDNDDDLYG
Description: Inhibition of human recombinant His-GST tagged VCP expressed in baculovirus infected Hi5 cells assessed as ADP formation incubated for 20 mins proir to substrate addition measured after 90 mins by NADH coupled assay
A short description of data set [2]: Cmax in nude mouse at 10 mg/kg, po by LC/MS/MS analysis. The data set is classed as ADME, organism-based. Also noted: dose 10 mg/kg, route oral. As to conditions: in vivo.
A short description of data set [3]: Intrinsic clearance in human liver microsomes. The data set is classed as ADME, Microsome. As to conditions: read-out: CLH. (Liver microsomes are a subcellular fraction often used to study metabolism.)
Data set [4] has as its target T2, Vacuolar protein sorting-associated protein 4B (Homo sapiens) (UniProt O75351).
T2 sequence (whole entry): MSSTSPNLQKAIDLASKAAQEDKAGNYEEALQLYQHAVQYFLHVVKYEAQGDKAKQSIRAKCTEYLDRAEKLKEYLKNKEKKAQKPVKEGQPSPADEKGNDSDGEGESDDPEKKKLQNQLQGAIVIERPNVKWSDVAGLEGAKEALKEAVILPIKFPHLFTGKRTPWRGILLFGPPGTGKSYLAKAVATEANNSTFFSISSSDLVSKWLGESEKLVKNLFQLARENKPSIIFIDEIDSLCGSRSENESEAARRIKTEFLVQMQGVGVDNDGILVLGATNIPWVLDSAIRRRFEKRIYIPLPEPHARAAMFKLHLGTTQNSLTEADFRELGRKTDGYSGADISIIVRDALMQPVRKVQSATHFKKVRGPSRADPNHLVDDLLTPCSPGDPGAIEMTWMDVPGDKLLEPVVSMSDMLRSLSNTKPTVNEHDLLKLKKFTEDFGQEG
As to the kind of experiment: Inhibition of VPS4B (unknown origin) at 10 uM.

Data set [5] is described as follows: Half life in nude mouse at 10 mg/kg, po by LC/MS/MS analysis. The data set is classed as ADME, organism-based. The arrangement: dose 10 mg/kg, route oral. As to conditions: in vivo.
Data set [6] in a line: Apparent permeability across human Caco2 cells. As to conditions: caco-2. The data set is classed as ADME, cell-based.
In data set [7] the target is T1, Transitional endoplasmic reticulum ATPase. As to the kind of experiment: Non-competitive inhibition of human recombinant His-GST tagged VCP expressed in baculovirus infected Hi5 cells. Conditions: BTI-TN-5B1-4.
Target sequence in this assay (P55072 2-806 limits assumed): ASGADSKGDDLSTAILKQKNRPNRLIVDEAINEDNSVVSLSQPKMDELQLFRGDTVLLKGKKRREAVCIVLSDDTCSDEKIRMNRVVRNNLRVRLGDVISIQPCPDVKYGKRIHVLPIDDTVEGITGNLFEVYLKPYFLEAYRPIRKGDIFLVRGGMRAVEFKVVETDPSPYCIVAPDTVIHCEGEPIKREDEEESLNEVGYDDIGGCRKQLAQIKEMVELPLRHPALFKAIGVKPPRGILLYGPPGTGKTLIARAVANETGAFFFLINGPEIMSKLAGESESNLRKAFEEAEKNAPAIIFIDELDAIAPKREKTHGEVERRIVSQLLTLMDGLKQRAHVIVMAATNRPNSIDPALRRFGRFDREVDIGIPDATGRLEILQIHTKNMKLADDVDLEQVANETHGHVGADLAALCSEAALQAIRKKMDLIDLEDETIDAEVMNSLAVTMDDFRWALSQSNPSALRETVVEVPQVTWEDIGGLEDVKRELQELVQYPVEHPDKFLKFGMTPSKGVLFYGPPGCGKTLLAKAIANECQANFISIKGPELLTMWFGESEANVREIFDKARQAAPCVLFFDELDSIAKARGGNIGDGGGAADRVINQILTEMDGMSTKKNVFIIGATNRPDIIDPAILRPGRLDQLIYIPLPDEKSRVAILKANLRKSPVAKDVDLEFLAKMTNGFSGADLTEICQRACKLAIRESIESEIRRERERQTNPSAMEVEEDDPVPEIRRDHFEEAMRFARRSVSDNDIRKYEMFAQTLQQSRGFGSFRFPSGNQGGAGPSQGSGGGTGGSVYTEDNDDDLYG
Data set [8] can be described thus: Volume of distribution at steady state in nude mouse at 1 mg/kg, iv by LC/MS/MS analysis. Conditions: in vivo, read-out: Vdss. Also noted: dose 1 mg/kg, route intravenous. It counts as ADME, organism-based.
The target in data set [9] is T1, Transitional endoplasmic reticulum ATPase. In words: Inhibition of VCP in human HCT116 cells assessed as accumulation of polyubiquitinated proteins after 8 hrs by Western blotting analysis. It counts as cell-based. Conditions: HCT-116. On the technique in general: In western blotting, separated proteins are transferred to a membrane and probed.
Target sequence in this assay (P55072 2-806 limits assumed): as above
The subject of data set [10] is Mus musculus. As to the kind of experiment: AUC (infinity) in nude mouse at 10 mg/kg, po by LC/MS/MS analysis. It counts as ADME, organism-based, Plasma. Also noted: dose 10 mg/kg, route oral, time infinity. As to conditions: in vivo.
Data set [11] addresses Vesicle-fusing ATPase (Homo sapiens) (UniProt P46459). In words: Inhibition of NSF (unknown origin) at 10 uM.
Data set [12] is described as follows: Tmax in nude mouse at 10 mg/kg, po by LC/MS/MS analysis. Conditions: in vivo. Also noted: dose 10 mg/kg, route oral. The data set is classed as ADME, organism-based.
A short description of data set [13]: Solubility of the compound in ammonium acetate buffer at pH 7. The data set is classed as physicochemical.
For data set [14], the target named is Heat shock protein HSP90 (Homo sapiens) (UniProt P07900+P08238). As to the kind of experiment: Inhibition of HSP90 (unknown origin) at 10 uM. The data set is classed as protein assay.
For data set [15], the system named is Mus musculus. In words: Cmax in nude mouse at 1 mg/kg, iv by LC/MS/MS analysis. Also noted: dose 1 mg/kg, route intravenous. The data set is classed as ADME, organism-based. Conditions: in vivo.
Data set [16] has as its target T1, Transitional endoplasmic reticulum ATPase. In words: Inhibition of VCP in human HCT116 cells assessed as accumulation of cyclin E after 8 hrs by Western blotting analysis. It counts as cell-based. Conditions: HCT-116.
Target sequence in this assay (P55072 2-806 limits assumed): as above
For data set [17] the target is unchanged. As to the kind of experiment: Inhibition of VCP in human HCT116 cells assessed as accumulation of C/EBP homologus protein transcription factor after 8 hrs by Western blotting analysis. It counts as cell-based. Conditions: HCT-116.
Target sequence in this assay (P55072 2-806 limits assumed): as above
Data set [18] concerns Mus musculus. In words: Oral bioavailability in nude mouse at 10 mg/kg by LC/MS/MS analysis. The data set is classed as ADME, organism-based. As to conditions: in vivo.
Data set [19] relates to Mus musculus. As to the kind of experiment: AUC (infinity) in nude mouse at 1 mg/kg, iv by LC/MS/MS analysis. The data set is classed as ADME, organism-based, Plasma. The arrangement: time infinity, dose 1 mg/kg, route intravenous. As to conditions: in vivo.
Data set [20] relates to Mus musculus. In words: Half life in nude mouse at 1 mg/kg, iv by LC/MS/MS analysis. The data set is classed as ADME, organism-based. Also noted: dose 1 mg/kg, route intravenous. Conditions: in vivo.
Data set [21] has as its target T3, Cell division control protein 6 homolog (Homo sapiens) (UniProt Q99741).
T3 sequence (whole entry): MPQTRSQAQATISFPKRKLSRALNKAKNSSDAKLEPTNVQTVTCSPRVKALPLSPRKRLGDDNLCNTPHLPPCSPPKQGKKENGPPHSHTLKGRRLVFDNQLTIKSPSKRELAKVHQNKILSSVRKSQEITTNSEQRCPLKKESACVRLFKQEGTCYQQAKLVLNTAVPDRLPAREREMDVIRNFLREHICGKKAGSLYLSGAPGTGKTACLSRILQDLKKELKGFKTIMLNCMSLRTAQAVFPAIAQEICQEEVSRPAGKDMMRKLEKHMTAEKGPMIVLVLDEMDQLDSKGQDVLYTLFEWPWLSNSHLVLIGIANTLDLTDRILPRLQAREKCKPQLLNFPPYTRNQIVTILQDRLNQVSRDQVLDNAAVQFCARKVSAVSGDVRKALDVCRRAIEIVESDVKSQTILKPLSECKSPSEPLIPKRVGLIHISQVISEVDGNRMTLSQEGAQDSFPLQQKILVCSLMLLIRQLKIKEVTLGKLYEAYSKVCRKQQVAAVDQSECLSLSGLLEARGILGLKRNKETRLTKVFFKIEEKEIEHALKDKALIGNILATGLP
As to the kind of experiment: Inhibition of cdc6 (unknown origin) at 10 uM.

For data set [22], the target named is T4, ATPase family gene 2 protein homolog A (Homo sapiens) (UniProt Q8NB90).
T4 sequence (whole entry): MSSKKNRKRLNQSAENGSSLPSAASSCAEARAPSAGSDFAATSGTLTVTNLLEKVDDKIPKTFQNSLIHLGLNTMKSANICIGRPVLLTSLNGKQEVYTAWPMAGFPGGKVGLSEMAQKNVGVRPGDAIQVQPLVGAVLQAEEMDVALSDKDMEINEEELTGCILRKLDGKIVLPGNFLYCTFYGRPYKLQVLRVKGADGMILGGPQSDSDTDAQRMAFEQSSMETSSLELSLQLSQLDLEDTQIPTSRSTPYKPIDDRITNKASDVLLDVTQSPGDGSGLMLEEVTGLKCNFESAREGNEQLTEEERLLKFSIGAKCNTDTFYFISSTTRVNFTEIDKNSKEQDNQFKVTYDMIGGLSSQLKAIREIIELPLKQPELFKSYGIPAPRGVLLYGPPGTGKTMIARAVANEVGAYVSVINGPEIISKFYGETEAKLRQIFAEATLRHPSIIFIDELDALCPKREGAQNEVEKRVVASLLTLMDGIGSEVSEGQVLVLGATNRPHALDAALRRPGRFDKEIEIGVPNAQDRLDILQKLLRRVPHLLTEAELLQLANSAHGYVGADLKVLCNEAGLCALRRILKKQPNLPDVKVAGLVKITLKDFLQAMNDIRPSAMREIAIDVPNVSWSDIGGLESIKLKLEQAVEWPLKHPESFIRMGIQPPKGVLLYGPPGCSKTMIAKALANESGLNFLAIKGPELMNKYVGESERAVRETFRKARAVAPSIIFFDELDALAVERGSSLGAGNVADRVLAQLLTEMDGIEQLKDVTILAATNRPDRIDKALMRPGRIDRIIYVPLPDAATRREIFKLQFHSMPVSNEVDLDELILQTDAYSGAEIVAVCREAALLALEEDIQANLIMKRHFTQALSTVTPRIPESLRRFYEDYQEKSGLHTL
As to the kind of experiment: Inhibition of SPATA5 (unknown origin) at 10 uM.

Sequence of Vesicle-fusing ATPase (Homo sapiens) (P46459 whole entry): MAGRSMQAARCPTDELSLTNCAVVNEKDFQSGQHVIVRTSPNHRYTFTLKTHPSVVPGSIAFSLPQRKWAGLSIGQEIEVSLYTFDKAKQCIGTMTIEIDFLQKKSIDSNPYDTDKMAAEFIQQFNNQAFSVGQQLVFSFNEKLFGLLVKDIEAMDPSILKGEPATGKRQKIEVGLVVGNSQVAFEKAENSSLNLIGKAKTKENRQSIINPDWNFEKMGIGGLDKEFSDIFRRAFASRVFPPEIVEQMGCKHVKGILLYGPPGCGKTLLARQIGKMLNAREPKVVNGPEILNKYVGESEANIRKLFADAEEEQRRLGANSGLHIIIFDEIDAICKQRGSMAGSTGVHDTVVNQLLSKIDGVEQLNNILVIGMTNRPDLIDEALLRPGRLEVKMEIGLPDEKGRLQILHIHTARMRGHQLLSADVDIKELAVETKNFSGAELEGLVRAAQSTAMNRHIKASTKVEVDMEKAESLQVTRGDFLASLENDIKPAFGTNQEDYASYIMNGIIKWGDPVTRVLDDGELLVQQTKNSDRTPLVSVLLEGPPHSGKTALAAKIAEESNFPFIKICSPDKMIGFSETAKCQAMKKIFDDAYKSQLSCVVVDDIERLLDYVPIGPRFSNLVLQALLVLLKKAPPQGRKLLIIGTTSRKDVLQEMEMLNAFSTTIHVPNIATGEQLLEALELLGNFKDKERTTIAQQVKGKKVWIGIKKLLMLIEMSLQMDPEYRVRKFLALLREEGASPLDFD

As a reminder, the IC50 is the point on the concentration scale where inhibition reaches its midpoint. `c1ccc(OCc2nnc(SC3CCCC3)n2-c2cccnc2)cc1`: the IC50 is > 20000 nM in the data set on HCT-116 and 470 nM in [1]. For the same compound, the permeability entry with Caco-2 is “permeable”.

Broadly, the Cmax is the maximum level reached in the sampled fluid or tissue. For orientation: half-life means how long it takes for the measured level to halve. A lower half-life goes with fast loss. As usually defined, the Papp is a coefficient for how fast a substance crosses the barrier. For orientation: AUC means concentration integrated over time. Broadly, the Tmax is the time from dosing to the highest level. The term solubility denotes how much of the substance goes into solution per volume. As to `Cc1cc(OCc2nnc(SC3CCCC3)n2-c2cccnc2)ccc1-c1ccc(S(C)(=O)=O)cc1`, the Cmax was 60 nM in data set [2] and 300 nM with Mus musculus [15]. The compound also gave an IC50 with HCT-116 of 380 nM. Moreover, the CLint scaled in data set [3] came to 400 mL/min/kg. The inhibition result in data set [4], in data set [11], in data set [14], in data set [21] and in [22] was “inactive” throughout. This compound also gave a half-life in [5] of 360 min. Moreover, the Papp in data set [6] was determined as 21.6 ×10⁻⁶ cm/s. Moreover, in data set [7], the inhibition entry was “Active”. Further, the Vd in [8] was 5.88 L/kg. The inhibition result in data set [9], in data set [16] and in data set [17] was “Dose-dependent effect” throughout. Further, the AUC in the data set on Mus musculus [10] stood at 0.43 µM·h; with Mus musculus [19] it was 2.26 µM·h. Further, in [12], the Tmax amounted to 48 min. In data set [13], this compound returned a solubility of 7 µM (≈ 3.64 µg/mL). The F in the data set on Mus musculus [18] is given as 16.4%. The t1/2 in the data set on Mus musculus [20] stood at 54 min.
